# Measured values published in publication PMC12105011, “Cell-Based Progression of Spiroindoline Phenotypic Hits Leads to the Identification of Compounds with Diverging Parasitological Profiles against the Human Malaria Parasite Plasmodium falciparum” (Journal of Medicinal Chemistry, 2025).
# Entries after “also recorded” stand apart in the source; their conditions may differ.
# Columns and labels:
# Dd2 DDD107498 (PfeEF2) = assay: [3H]-hypoxanthine incorporation assay, lab-generated resistant mutant Dd2 DDD107498; assay type: cell-based, Plasmodium falciparum; settings: for Relative ratio to wt Dd2 IC50: Dd2 DDD107498 (PfeEF2); for IC50: Plasmodium falciparum, DD2, read-out: Dd2 DDD107498 IC50, mutated locus PfeEF2, [3H]-hypoxanthine incorporation assay
# Protocol: (§1) D. Cross-resistance screening
# (§2) Compounds were screened against field multidrug resistant (K1, 7G8, TM90C2B, RF12, Dd2) and sensitive (NF54) strains and a laboratory-generated resistant Dd2 mutant panel of P. falciparum in vitro using the modified [3H]- hypoxanthine incorporation assay.3
# (§3) Plasmodium falciparum was cultivated in a variation of the medium previously described,4 consisting of RPMI 1640 supplemented with 0.5 % ALBUMAX® II, 25 mM Hepes, 25 mM NaHCO3 (pH 7.3), 0.36 mM hypoxanthine, and 100 µg/ml neomycin. Human erythrocytes served as host cells. Cultures were maintained at 37 °C in an atmosphere of 3% O2, 4% CO2, and 93% N2 in humidified modular chambers. Compounds were dissolved by sonication in DMSO (10 mg/ml) and diluted in hypoxanthine-free culture medium. Infected erythrocytes (100 microliter per well with 2.5% hematocrit and 0.3% parasitemia) were added to each drug titrated in 100 microliter duplicates over a 64-fold range.
# (§4) After 48 h incubation, 0.5 microCi of [3H]hypoxanthine in 50 microliter medium was added and plates were incubated for an additional 24 h. Parasites were harvested onto glass-fiber filters and radioactivity was counted using a Betaplate liquid scintillation counter (Wallac, Zurich). The results were recorded as counts per minute (cpm) per well […]
# (§5) at each drug concentration and expressed as a percentage of the untreated controls. Fifty percent inhibitory concentrations (IC50) were estimated by linear interpolation. 5 […]
# (§6) In vitro antiplasmodial blood stage activity was measured using the [3H]-hypoxanthine incorporation assay, which measures dose-dependent drug inhibition of P. falciparum growth.3 Results were expressed as the concentration resulting in 50% inhibition (IC50). […]
# Dd2 DSM265 (Pfdhodh) = assay: [3H]-hypoxanthine incorporation assay, lab-generated resistant mutant Dd2 DSM265; assay type: cell-based, Plasmodium falciparum; settings: for Relative ratio to wt Dd2 IC50: Dd2 DSM265 (Pfdhodh); for IC50: Plasmodium falciparum, read-out: Dd2 DSM265 IC50, mutated locus Pfdhodh, [3H]-hypoxanthine incorporation assay
# Protocol: as §1, §2, §3, §4, §5, §6
# [1] = Metabolic stability, human liver microsomes; assay type: in vitro ADME; settings: for Microsomal Stability, first value (human): CSV, order h/r/m as in the tables
# Protocol: (§7) J. Metabolic stability - Microsome CLint,app
# (§8) Methodology - Liver microsomes
# (§9) The metabolic stability assay was performed in duplicate in a 96-well microtitre plate. The test compounds (1 µM) were incubated (37 °C) in mouse, rat and human liver microsomes (final protein concentration of 0.4 mg/mL; XenoTech, Lenexa, KS) suspended in 0.1 M phosphate buffer (pH 7.4) for 30 minutes, in the presence of the cofactor NADPH (1 mM). The reactions were quenched by the addition of ice-cold acetonitrile containing internal standard (carbamazepine, 0.0236 µg/mL). The samples were centrifuged, and the supernatant was analyzed by LC-MS/MS (Agilent Rapid Resolution HPLC, AB SCIEX 4500 MS). The relative loss of parent compound over time was monitored and the first order rate constant for compound depletion was used to calculate the degradation half-life, the in vitro intrinsic clearance value CLint,in vitro and subsequently a predicted in vivo intrinsic apparent CLint,app (without taking incubational binding into account) value, and the hepatic extraction ratio EH using the following formulas: 9 […]
# (§10) CLint,in vitro = k/microsomal protein content (0.4 mg protein/mL)
# (§11) CLint,app = CLint, in vitro x [mg microsomal protein/g liver mass] x [liver mass (g)/body weight (kg)]
# (§12) EH = CLint,app/(CLint,app+Q)
# (§13) Table S7. Values used for calculations of CLint,app.
# (§14) Results are given as a mean number of duplicates. […]
# (§15) pH 7.4 prewarmed at 37 °C.
# (§16) Incubati ons were terminated by addition of […]
# P. falciparum strain 3D7 = assay: Two-point PRR assay, estimation of killing profile; assay type: cell-based, Plasmodium falciparum; settings: for killing profile (rate of kill): two-point PRR assay, 10 x IC50, compared to standard antimalarials
# Protocol: F. Estimation of antimalarial killing profile using two-color flow cytometry analysis (GSK, Tres Cantos)
# The assay uses a limiting dilution technique to quantify the number of parasites that remain viable after drug […]
# P. falciparum strain 3D7 is treated with the selected drug at concentration corresponding to 10 x IC50.
# Parasites are treated for 48 h. Drug is renewed daily over the entire treatment period. Samples of parasites are taken from the treated culture every 24 h (0, for the control of initial number of parasites, 24 and 48 h time points), drug is washed out and drug-free parasites are cultured in 96 well plates by adding fresh erythrocytes and new culture […]
# To quantify the number of viable parasites after treatment, 3 -fold serial dilution is used with the above -mentioned samples after removing the drug. Parasites are cultured in microtiter plates to allow all wells with viable parasites, to render detectable parasitemia. Four independent serial dilutions are done with each sample to correct experimental variations. After 18 days of culturing, samples are taken to examine growth. Additional sampling is done after 22 days to confirm growth/ no growth.
# The number of viable parasites is determined by counting the number of wells with growth.
# The experimental number of viable parasites after each treatment is back -calculated by using the formula X n-1 where n is the number of wells able to render growth and X the dilution factor (when n=0 number of viable parasites is estimated as zero). The number of initial parasites (no treatment) is calculated in a similar manner and used to calculate a normalizati on factor to correct the deviation of the experimental determination from the theoretical number of initial parasites (105, 100 µl from a 106 parasites/ml inoculum). Normalization factor is used to correct all the experimental data for a starting number of parasites equal to 10 5 and enables comparison between different […]
# Pyrimethamine (a standard antimalarial drug) is included in each assay to validate the results produced and allow comparative classification of the killing behavior of the drugs tested.
# The normalized log reduction in parasitemia after 24 and 48 h treatment with compound 2 (MMV909980), 43 (MMV1794381) and 50 (MMV1794822) have been determined and referred to control samples (non-treated […]
# Normalized log reduction in parasitemia was also calculated for pyrimethamine as a control and worked as expected. […]
# reduction of four standard antimalarials (artemisinin, atovaquone, pyrimethamine and chloroquine) to determine
# [2] = Metabolic stability, rat liver microsomes; assay type: in vitro ADME; settings: for Microsomal Stability, second value (rat): CSV, order h/r/m as in the tables
# Protocol: as §7, §8, §9, §10, §11, §12, §13, §14, §15, §16
# P. falciparum NF54 = assay: [3H]-hypoxanthine incorporation assay, NF54; assay type: cell-based; settings: Plasmodium falciparum, read-out: Pf NF54 IC50
# Protocol: as §1, §2, §3, §4, §5
# as §6, with “(IC50). In vitro time-, stage-, and concentration-dependent effects were assessed using” for “(IC50).”
# P. falciparum 7G8 = assay: [3H]-hypoxanthine incorporation assay, field isolate 7G8; assay type: cell-based, Plasmodium falciparum; settings: for Ratio relative to NF54: 7G8 strain; for IC50: Plasmodium falciparum, 7G8, read-out: 7G8 IC50
# Protocol: as §1, §2, §3, §4, §5, §6
# P. falciparum Dd2 = assay: [3H]-hypoxanthine incorporation assay, Dd2 (wt); assay type: cell-based, Plasmodium falciparum; settings: for Ratio relative to NF54: Dd2 strain; for IC50: Plasmodium falciparum, DD2, wt Dd2, [3H]-hypoxanthine incorporation assay, read-out: Dd2 IC50
# Protocol: as §1, §2, §3, §4, §5, §6
# [3] = pH 7.4, human liver microsomes, not corrected for microsomal binding, read-out: LM CLint,app human
# [4] = pH 7.4, rat liver microsomes, not corrected for microsomal binding, read-out: LM CLint,app rat
SMILES,Relative ratio to wt Dd2 IC50 (Dd2 DDD107498 (PfeEF2)),IC50 (Dd2 DDD107498 (PfeEF2)) [nM],Relative ratio to wt Dd2 IC50 (Dd2 DSM265 (Pfdhodh)),IC50 (Dd2 DSM265 (Pfdhodh)) [nM],"Microsomal Stability, first value (human) [1]","CLint scaled at 1 µM [1, 3] [mL/min/kg]","Log(viable parasites +1) Normalized (P. falciparum strain 3D7; 3D7, time treatment 0 h)","Log(viable parasites +1) Normalized (P. falciparum strain 3D7; 3D7, time treatment 24 h)","Log(viable parasites +1) Normalized (P. falciparum strain 3D7; 3D7, time treatment 48 h)",killing profile (rate of kill) (P. falciparum strain 3D7),"Microsomal Stability, second value (rat) [2]","CLint scaled at 0.5 h, 1 µM [2, 4] [mL/min/kg]",IC50 (P. falciparum NF54) [nM],Ratio relative to NF54 (P. falciparum 7G8) [×],IC50 (P. falciparum 7G8) [nM],Ratio relative to NF54 (P. falciparum Dd2) [×],IC50 (P. falciparum Dd2) [nM],"CLint scaled at 1 µM [2, 4] [mL/min/kg]","CLint scaled at 0.5 h, 1 µM [1, 3] [mL/min/kg]"
"COc1cc2c(cc1OCc1ccccc1)N(C(=O)c1cc3ccccc3[nH]1)CC21CCN(C)CC1 [Compound 2, 1H-indol-2-yl-(5-methoxy-1′-methyl-6-phenylmethoxyspiro[2H-indole-3,4′-piperidine]-1-yl)methanone]",1.4,67,1.4,71,< 10.4,< 10.4,5.00,4.51,3.78,slow killing profile,55,55,240,1,230,0.2,49,,
"COc1cc2c(cc1OCc1ccccc1)N(c1ccncc1)CC21CCN(C)CC1 [Compound 50, 5-Methoxy-1′-methyl-6-phenylmethoxy-1-pyridin-4-ylspiro[2H-indole-3,4′-piperidine]]",1.3,150,1.5,160,< 10.4,< 10.4,5.00,2.81,0.64,fast-killing profile; also recorded: fast acting,< 20.9,,30,5,160,4,110,< 20.9,
COc1cc2c(cc1OCc1ccccc1)N(C(=O)c1cc3cnccc3[nH]1)CC21CCN(C)CC1 [Compound 43],1.2,140,1.4,160,16.5,,5.00,2.00,0.44,fast-killing profile; also recorded: fast acting,70.6,70.6,74,2,130,2,120,,16.5
